This note sets out measurements from PMC5150537 (Nature Communications, 2016).

Each structure is given as a SMILES string.

The assay concerns the target T1, TmPPase (Thermotoga maritima, UniProt Q9S5X0).
T1 construct: gene hppA; N-terminally His6-tagged, plasmid pRS1024, expressed in Saccharomyces cerevisiae BJ1991, OGNPG-solubilised, homodimer
T1 sequence (Q9S5X0 1-726 limits assumed): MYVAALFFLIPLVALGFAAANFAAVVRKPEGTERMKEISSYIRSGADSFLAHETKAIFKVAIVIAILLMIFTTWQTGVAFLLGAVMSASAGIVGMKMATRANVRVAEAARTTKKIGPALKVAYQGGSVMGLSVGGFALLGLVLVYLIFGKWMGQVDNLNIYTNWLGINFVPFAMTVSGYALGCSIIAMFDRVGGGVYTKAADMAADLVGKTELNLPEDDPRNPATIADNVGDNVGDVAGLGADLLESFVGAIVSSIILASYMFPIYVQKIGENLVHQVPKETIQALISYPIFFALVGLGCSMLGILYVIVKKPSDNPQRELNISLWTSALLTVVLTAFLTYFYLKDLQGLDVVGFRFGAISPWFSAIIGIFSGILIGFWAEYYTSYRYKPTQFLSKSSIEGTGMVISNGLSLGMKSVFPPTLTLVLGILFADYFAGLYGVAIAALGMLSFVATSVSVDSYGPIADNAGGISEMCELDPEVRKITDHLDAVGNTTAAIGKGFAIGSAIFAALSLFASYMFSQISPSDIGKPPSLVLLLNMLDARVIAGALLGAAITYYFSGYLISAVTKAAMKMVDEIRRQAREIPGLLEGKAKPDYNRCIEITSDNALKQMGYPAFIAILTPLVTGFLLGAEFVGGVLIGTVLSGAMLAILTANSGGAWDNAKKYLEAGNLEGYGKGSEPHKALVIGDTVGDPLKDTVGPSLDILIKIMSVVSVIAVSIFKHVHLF
As to the kind of experiment: X-ray crystallography, […] Å. The conditions noted are these: active site, as Mg5IDP complex; Na+ bound at ion gate; pH 8.5 well solution; non-hydrolysable substrate analogue. In kind it is binding.

Regarding `O=P(O)(O)NP(=O)(O)O` [IDP, imidodiphosphate], the “X-ray crystallography, 3.5 Å” value is on record as “In TmPPase:IDP, an Mg5IDP-complex was fit into the positive Fo–Fc density in the hydrolytic centre”.
